Results published in ChEMBL document CHEMBL1143210, “2-Substituted 4-, 5-, and 6-[(1E)-3-oxo-3-phenylprop-1-en-1-yl]pyridazin-3(2H)-ones and 2-substituted 4,5-bis[(1E)-3-oxo-3-phenylprop-1-en-1-yl]pyridazin-3(2H)-ones as potent platelet aggregation inhibitors: design, synthesis, and SAR studies” (Bioorg Med Chem Lett, 2008).

tested on: Blood; test: Inhibition of thrombin-induced platelet aggregation in human blood at 100 uM by turbidimetric method; assay type: functional

| Compound | inhibition at 100 µM |
| --- | --- |
| O=C(/C=C/c1ccnn(Cc2ccccc2)c1=O)c1ccccc1 | 40% |

tested on: Blood; test: Inhibition of thrombin-induced platelet aggregation in human blood by turbidimetric method; assay type: functional, tissue-based

| Compound | IC50 |
| --- | --- |
| O=C(/C=C/c1cnn(-c2ccccc2)c(=O)c1)c1ccccc1 | 3.3 µM |
| Cn1ncc(/C=C/C(=O)c2ccccc2)cc1=O | 15.7 µM |
| CN1CC(/C=C/C(=O)c2ccccc2)=C(/C=C/C(=O)c2ccccc2)C=N1 | 6.15 µM |
| O=C(/C=C/C1=C(/C=C/C(=O)c2ccccc2)CN(c2ccccc2)N=C1)c1ccccc1 | 1.98 µM |
| O=C(/C=C/c1ccc(=O)n(-c2ccccc2)n1)c1ccccc1 | 12 µM |
| Cn1nc(/C=C/C(=O)c2ccccc2)ccc1=O | 13.4 µM |
| O=C(/C=C/c1cnn(Cc2ccccc2)c(=O)c1)c1ccccc1 | 4.2 µM |
| O=C(/C=C/c1ccccc1)c1ccccc1 [CHALCONE] | 163 µM |

Further lines, results first:

| IC50 | Compound |
| --- | --- |
| 509 µM | O=C1C(CC[S+]([O-])c2ccccc2)C(=O)N(c2ccccc2)N1c1ccccc1 (centres undefined) [SULFINPYRAZONE] |
| 60 µM | O=C(/C=C/c1ccc(=O)n(Cc2ccccc2)n1)c1ccccc1 |
| 37.1 µM | Cn1nccc(/C=C/C(=O)c2ccccc2)c1=O |
| 17.6 µM | O=C(/C=C/c1ccnn(-c2ccccc2)c1=O)c1ccccc1 |
| 4.7 µM | Cc1[nH]c(=O)c(C#N)cc1-c1ccncc1 [MILRINONE] |
